From patent US9481659B2, “Selective heterocyclic sphingosine 1 phosphate receptor modulators” (Celgene International II SÀRL, priority 2011, dated 2016)
pEC50: −log10 of the molar value. Counter-ions that a name gives are not always drawn.

The molecules below were run against S1P1/EDG1 (Homo sapiens, UniProt P21453) (assay: S1P1 CRE-bla CHOK1 reporter assay, inhibition of Forskolin induced cAMP). Details: agonist activity range; S1P1 CRE-bla CHOK1 cells, 2 μM Forskolin; read-out: S1P1 ACTIVITY.
Format: cell-based
Method in brief: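 CRE-bla CHO K1 cells stably expressing human S1P1 were treated 4 hrs at 37° C with 10-point compound dilutions plus 2 μM Forskolin. Inhibition of cAMP-driven β-lactamase reporter was read with a FRET substrate loaded 2 hrs at room temperature.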

Sequence of S1P1/EDG1 (P21453 whole entry): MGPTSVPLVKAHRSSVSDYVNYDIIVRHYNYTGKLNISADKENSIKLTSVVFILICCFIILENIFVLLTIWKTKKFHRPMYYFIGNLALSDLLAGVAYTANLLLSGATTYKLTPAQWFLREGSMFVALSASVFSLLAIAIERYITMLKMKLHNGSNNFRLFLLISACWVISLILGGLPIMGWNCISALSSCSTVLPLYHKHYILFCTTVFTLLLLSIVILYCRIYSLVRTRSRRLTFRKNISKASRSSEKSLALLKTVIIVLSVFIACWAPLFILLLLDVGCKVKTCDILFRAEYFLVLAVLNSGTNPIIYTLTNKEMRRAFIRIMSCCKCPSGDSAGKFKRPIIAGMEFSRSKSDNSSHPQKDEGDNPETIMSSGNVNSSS

Compared with `COC(=O)N[C@@H]1CCCc2c(-c3nnc(-c4ccc(OC(C)C)c(C#N)c4)s3)cccc21` [Compound 244], `COCC(=O)N[C@@H]1CCCc2c(-c3nnc(-c4ccc(OC(C)C)c(C#N)c4)s3)cccc21` [Compound 237] is higher in pEC50: 8.30 to 9.30 for the first, 9.30 to 10.30 for the second.

First: CC(C)Oc1ccc(-c2ncc(-c3cccc4c3CC[C@H]4NC(=O)CN(C)C)s2)cc1C#N [Compound 81]
Second: CC(C)Oc1ccc(-c2ncc(-c3cccc4c3CC[C@H]4NC(=O)CO)s2)cc1C#N [Compound 74]
The pEC50 of the first is lower: 8.30 to 9.30 for the first, 9.30 to 10.30 for the second.

Compared with `CC(C)Oc1ccc(-c2nc(-c3cccc4c3CC[C@@H]4N(CCO)CCO)ns2)cc1C#N` [Compound 312, (S)-5-(3-(1-(bis(2-hydroxyethyl)amino)-2,3-dihydro-1H-inden-4-yl)-1,2,4-thiadiazol-5-yl)-2-isopropoxybenzonitrile hydrochloride], `CC(C)Oc1ccc(-c2nnc(-c3cccc4c3CC[C@H]4O)s2)cc1C#N` [Compound 2, (R)-5-(5-(1-hydroxy-2,3-dihydro-1H-inden-4-yl)-1,3,4-thiadiazol-2-yl)-2-isopropoxybenzonitrile] is higher in pEC50: 8.30 to 9.30 for the first, 9.30 to 10.30 for the second. The second is the more potent here.

`CC(C)Oc1ccc(-c2ncc(-c3cccc4c3CC[C@@H]4NS(=O)(=O)CCN3CCC[C@@H](O)C3)s2)cc1C#N` [Compound 141, N—((S)-4-(2-(3-cyano-4-isopropoxyphenyl)thiazol-5-yl)-2,3-dihydro-1H-inden-1-yl)-2-((R)-3-hydroxypiperidin-1-yl)ethanesulfonamide] and `CC(C)Oc1ccc(-c2ncc(-c3cccc4c3CC[C@H]4NS(=O)(=O)CCN3CCC[C@H](O)C3)s2)cc1C#N` [Compound 144] fall in the same range of pEC50: 8.30 to 9.30 for the first, 8.30 to 9.30 for the second.

`CC(C)Oc1ccc(-c2nnc(-c3cccc4c3CCC4NS(=O)(=O)CCN3CC[C@@H](O)C3)s2)cc1C#N` (stereo in doubt) [Compound 38, N—((R)-4-(5-(3-cyano-4-isopropoxyphenyl)-1,3,4-thiadiazol-2-yl)-2,3-dihydro-1H-inden-1-yl)-2-((R)-3-hydroxypyrrolidin-1-yl)ethanesulfonamide] and `CC(C)Oc1ccc(-c2ncc(-c3cccc4c3CC[C@H]4NS(=O)(=O)CCN3CC[C@@H](O)C3)s2)cc1C#N` [Compound 133] fall in the same range of pEC50: 8.30 to 9.30 for the first, 8.30 to 9.30 for the second.

`CC(C)Oc1ccc(-c2nnc(-c3cccc4c3CCC[C@@H]4NCc3cccnc3)s2)cc1C#N` [Compound 271, (S)-2-isopropoxy-5-(5-(5-((pyridin-3-ylmethyl)amino)-5,6,7,8-tetrahydronaphthalen-1-yl)-1,3,4-thiadiazol-2-yl)benzonitrile] and `CC(C)Oc1ccc(-c2nnc(-c3cccc4c3CCC[C@H]4NCc3cccnc3)s2)cc1C#N` [Compound 263, (R)-2-isopropoxy-5-(5-(5-((pyridin-3-ylmethyl)amino)-5,6,7,8-tetrahydronaphthalen-1-yl)-1,3,4-thiadiazol-2-yl)benzonitrile] fall in the same range of pEC50: 8.30 to 9.30 for the first, 8.30 to 9.30 for the second.

`CC(C)Oc1ccc(-c2nnc(-c3cccc4c3CCC[C@H]4NCC(=O)N3CCCC3)s2)cc1C#N` [Compound 303, (R)-2-isopropoxy-5-(5-(5-((2-oxo-2-(pyrrolidin-1-yl)ethyl)amino)-5,6,7,8-tetrahydronaphthalen-1-yl)-1,3,4-thiadiazol-2-yl)benzonitrile] and `CC(C)Oc1ccc(-c2nnc(-c3cccc4c3CCC[C@@H]4NCC(=O)O)s2)cc1C#N` [Compound 302, (S)-2-((5-(5-(3-cyano-4-isopropoxyphenyl)-1,3,4-thiadiazol-2-yl)-1,2,3,4-tetrahydronaphthalen-1-yl)amino)acetic acid] fall in the same range of pEC50: 9.30 to 10.30 for the first, 9.30 to 10.30 for the second.

`CC(C)Oc1ccc(-c2nnc(-c3cccc4c3CCC[C@@H]4NS(N)(=O)=O)s2)cc1C#N` [Compound 276, (S)—N-(5-(5-(3-cyano-4-isopropoxyphenyl)-1,3,4-thiadiazol-2-yl)-1,2,3,4-tetrahydronaphthalen-1-yl)sulfamide] and `CC(C)Oc1ccc(-c2nnc(-c3cccc4c3CCC[C@H]4NS(C)(=O)=O)s2)cc1C#N` [Compound 278, (R)—N-(5-(5-(3-cyano-4-isopropoxyphenyl)-1,3,4-thiadiazol-2-yl)-1,2,3,4-tetrahydronaphthalen-1-yl)methanesulfonamide] fall in the same range of pEC50: 9.30 to 10.30 for the first, 9.30 to 10.30 for the second.

First: CC(C)Oc1ccc(-c2ncc(-c3cccc4c3CC[C@H]4NC(=O)N3CCC(N(C)C)CC3)s2)cc1C#N [Compound 192]
Second: CC(C)Oc1ccc(-c2ncc(-c3cccc4c3CC[C@H]4NC(=O)N3CC[C@@H](N)C3)s2)cc1C#N [Compound 178]
The pEC50 of the first is lower: < 8.30 for the first, 9.30 to 10.30 for the second. The second is the more potent here.

`CC(C)Oc1ccc(-c2nnc(-c3cccc4c3CCC[C@@H]4NCc3cnco3)s2)cc1C#N` [Compound 269] and `CC(C)Oc1ccc(-c2nnc(-c3cccc4c3CCC[C@H]4NCc3cnco3)s2)cc1C#N` [Compound 273] fall in the same range of pEC50: 8.30 to 9.30 for the first, 8.30 to 9.30 for the second.

`CNCCC(=O)N[C@@H]1CCCc2c(-c3nnc(-c4ccc(OC(C)C)c(C#N)c4)s3)cccc21` [Compound 260] and `CC(C)Oc1ccc(-c2nnc(-c3cccc4c3CCC[C@@H]4NC(=O)CCNS(C)(=O)=O)s2)cc1C#N` [Compound 254] fall in the same range of pEC50: 8.30 to 9.30 for the first, 8.30 to 9.30 for the second.

`CC(C)Oc1ccc(-c2ncc(-c3cccc4c3CC[C@H]4NS(=O)(=O)CCN3CCC(O)CC3)s2)cc1C#N` [Compound 146] and `CC(C)Oc1ccc(-c2ncc(-c3cccc4c3CC[C@H]4NS(=O)(=O)CCN3CCC3)s2)cc1C#N` [Compound 127] fall in the same range of pEC50: 8.30 to 9.30 for the first, 8.30 to 9.30 for the second.

Compared with `CC(C)Oc1ccc(-c2ncc(-c3cccc4c3CC[C@H]4NCCO)s2)cc1C#N` [Compound 91, (R)-5-(5-(1-((2-hydroxyethyl)amino)-2,3-dihydro-1H-inden-4-yl)thiazol-2-yl)-2-isopropoxybenzonitrile], `CC(C)Oc1ccc(-c2ncc(-c3cccc4c3CC[C@H]4NC(=O)CN)s2)cc1C#N` [Compound 77] is higher in pEC50: 8.30 to 9.30 for the first, 9.30 to 10.30 for the second. The second is the more potent here.

First: COCCS(=O)(=O)N[C@@H]1CCCc2c(-c3cnc(-c4ccc(OC(C)C)c(C#N)c4)s3)cccc21 [Compound 285]
Second: CCS(=O)(=O)N[C@@H]1CCc2c(-c3cnc(-c4ccc(OC(C)C)c(C#N)c4)s3)cccc21 [Compound 113]
The pEC50 of the first is lower: 8.30 to 9.30 for the first, 9.30 to 10.30 for the second. The second is the more potent here.

`CC(C)Oc1ccc(-c2ncc(-c3cccc4c3CC[C@H]4NS(=O)(=O)CCN3CCCCC3)s2)cc1C#N` [Compound 140] and `CC(C)Oc1ccc(-c2ncc(-c3cccc4c3CC[C@H]4NS(=O)(=O)CCN3CCNCC3)s2)cc1C#N` [Compound 151] cannot be ordered by pEC50: < 8.30 for the first, < 8.30 for the second.

`CC(C)Oc1ccc(-c2ncc(-c3cccc4c3CC[C@H]4NC(=O)N3CCC[C@H](O)C3)s2)cc1C#N` [Compound 199] and `CC(C)Oc1ccc(-c2ncc(-c3cccc4c3CC[C@H]4NCC(=O)N3CC[C@H](O)C3)s2)cc1C#N` [Compound 102, 5-(5-((R)-1-((2-((S)-3-hydroxypyrrolidin-1-yl)-2-oxoethyl)amino)-2,3-dihydro-1H-inden-4-yl)thiazol-2-yl)-2-isopropoxybenzonitrile hydrochloride] fall in the same range of pEC50: 9.30 to 10.30 for the first, 9.30 to 10.30 for the second.

`CC(C)Oc1ccc(-c2nnc(-c3cccc4c3CCC[C@H]4NCc3ccncc3)s2)cc1C#N` [Compound 262] and `CC(C)Oc1ccc(-c2nnc(-c3cccc4c3CCC[C@H]4NCc3ncc[nH]3)s2)cc1C#N` [Compound 265] fall in the same range of pEC50: 8.30 to 9.30 for the first, 8.30 to 9.30 for the second.

First: CC(C)Oc1ccc(-c2ncc(-c3cccc4c3CC[C@H]4NC(=O)[C@H](N)CO)s2)cc1C#N [Compound 80]
Second: CC(C)Oc1ccc(-c2nnc(-c3cccc4c3CCC[C@H]4NC(=O)[C@H](N)CO)s2)cc1C#N [Compound 247]
The pEC50 of the first is higher: 9.30 to 10.30 for the first, 8.30 to 9.30 for the second. The first is the more potent here.

First: COC(=O)CS(=O)(=O)N[C@H]1CCCc2c(-c3nnc(-c4ccc(OC(C)C)c(C#N)c4)s3)cccc21 [Compound 284, (S)-methyl 2-(N-(5-(5-(3-cyano-4-isopropoxyphenyl)-1,3,4-thiadiazol-2-yl)-1,2,3,4-tetrahydronaphthalen-1-yl)sulfamoyl)acetate]
Second: CNC(=O)CS(=O)(=O)N[C@@H]1CCCc2c(-c3nnc(-c4ccc(OC(C)C)c(C#N)c4)s3)cccc21 [Compound 294]
The pEC50 of the first is lower: 8.30 to 9.30 for the first, 9.30 to 10.30 for the second.

First: CC(C)Oc1ccc(-c2nnc(-c3cccc4c3CC[C@H]4NCCS(C)(=O)=O)s2)cc1C#N [Compound 32, (R)-2-isopropoxy-5-(5-(1-((2-(methylsulfonyl)ethyl)amino)-2,3-dihydro-1H-inden-4-yl)-1,3,4-thiadiazol-2-yl)benzonitrile]
Second: CC(C)Oc1ccc(-c2nnc(-c3cccc4c3CCC[C@@H]4NCCO)s2)cc1C#N [Compound 300, (S)-5-(5-(5-((2-hydroxyethyl)amino)-5,6,7,8-tetrahydronaphthalen-1-yl)-1,3,4-thiadiazol-2-yl)-2-isopropoxybenzonitrile]
The pEC50 of the first is higher: > 10.30 for the first, 9.30 to 10.30 for the second.

First: CC(C)Oc1ccc(-c2ncc(-c3cccc4c3CC[C@H]4NS(=O)(=O)CC(=O)O)s2)cc1C#N [Compound 158, (R)-2-(N-(4-(2-(3-cyano-4-isopropoxyphenyl)thiazol-5-yl)-2,3-dihydro-1H-inden-1-yl)sulfamoyl)acetic acid]
Second: CC(C)Oc1ccc(-c2nnc(-c3cccc4c3CCC4NS(=O)(=O)CCN3CC[C@@H](O)C3)s2)cc1C#N (stereo in doubt) [Compound 37, N—((S)-4-(5-(3-cyano-4-isopropoxyphenyl)-1,3,4-thiadiazol-2-yl)-2,3-dihydro-1H-inden-1-yl)-2-((R)-3-hydroxypyrrolidin-1-yl)ethanesulfonamide]
The pEC50 of the first is higher: > 10.30 for the first, 8.30 to 9.30 for the second.

`COCC(=O)N[C@H]1CCCc2c(-c3nnc(-c4ccc(OC(C)C)c(C#N)c4)s3)cccc21` [Compound 239] and `CC(C)Oc1ccc(-c2nnc(-c3cccc4c3CCC[C@H]4NC(=O)c3cccnc3)s2)cc1C#N` [Compound 234] fall in the same range of pEC50: 8.30 to 9.30 for the first, 8.30 to 9.30 for the second.

First: CC(C)Oc1ccc(-c2nnc(-c3cccc4c3CCC[C@@H]4NC(=O)c3cccnc3)s2)cc1C#N [Compound 242]
Second: CC(C)Oc1ccc(-c2nnc(-c3cccc4c3CCC[C@@H]4NC(=O)c3ccccn3)s2)cc1C#N [Compound 243]
The pEC50 of the first is higher: 8.30 to 9.30 for the first, < 8.30 for the second.

Compared with `CC(C)Oc1ccc(-c2nnc(-c3cccc4c3CCC[C@@H]4NS(=O)(=O)C3CC3)s2)cc1C#N` [Compound 283], `CC(C)Oc1ccc(-c2nnc(-c3cccc4c3CCC[C@H]4NS(=O)(=O)C3CC3)s2)cc1C#N` [Compound 282] is lower in pEC50: 9.30 to 10.30 for the first, 8.30 to 9.30 for the second. The first is the more potent here.
